Assay [1] deals with NLRP3 inflammasome. As to the kind of experiment: IL-1β secretion assay in PMA-differentiated THP-1 cells, nigericin-activated (HTRF). It counts as cell-based. The procedure: 10 μL supernatant was removed, and IL-1p levels were monitored using an HTRF assay (CisBio, #621L1PEC) according to manufacturers' instructions. Viability and pyroptosis was monitored with the addition of PrestoBlue cell viability reagent (Life Technologies, #A13261) directly to the cell culture plate.
IC50 values were calculated from the plot of percentage of inhibition versus the inhibitor concentration by a logistics fit according to: y=A2+(A1−A2)/(1+(x/IC50)^p) where y is the %-inhibition at the inhibitor concentration, x. A1 is the lowest inhibition value, i.e. 0%, and A2 the maximum inhibition value, i.e. 100%. The exponent, p, is the Hill coefficient. The curve fitting was conducted with an internally developed software suite.
NLRP3-dependent IL-1β secretion was stimulated in PMA-differentiated THP-1 cells by the addition of nigericin, and cytokines were measured in the […] after 3 hours. As discussed above, activation of the NLRP3 inflammasome requires both an NF-kB-dependent priming step and the addition of a NLRP3 activator.

Assay [2] concerns NF-kB-dependent TNF-α secretion. The assay can be described thus: TNF-α secretion assay in THP-1 cells (counter screen, HTRF). It counts as cell-based. As to conditions: Pam3CSK4-stimulated, 3 hours. In short, it runs like this: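 THP-1 cells were treated with compound, then stimulated with 1 μg/mL LPS or 100 ng/mL Pam3CSK4 for 3 h. Secreted TNF-α in supernatant was measured by HTRF, with viability monitored in parallel. IC50 from logistic fit of % inhibition versus concentration with Hill coefficient.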

Setting [3] is: Homo sapiens, 15 μM nigericin, 3 hours, read-out: IL-1β IC50.

Like-named read-outs stand apart in the source and are kept apart here.

The text below walks through data of patent US11208399B2, “NLRP3 inflammasome inhibitors” (Novartis AG, priority 2019, dated 2021).

Take `Cc1cc(C(F)(F)F)cc(O)c1-c1ccc(NC[C@H](O)C(C)C)nn1` [Ex 90b, (R)-2-(6-((2-Hydroxy-3-methylbutyl)amino)pyridazin-3-yl)-3-methyl-5-(trifluoromethyl) phenol]: the IC50 in assay [1] (setting [3]) is 115 nM; in assay [2] (Homo sapiens), above 100000 nM.

In the case of `Cc1cc(NCC(C)(C)O)nnc1-c1c(C)cc(C(F)(F)F)cc1O` [Ex 73, 2-(6-((2-Hydroxy-2-methylpropyl)amino)-4-methylpyridazin-3-yl)-3-methyl-5-(trifluoromethyl)phenol], the values for the half-maximal inhibitory concentration (IC50) in assay [1] (setting [3]) and in assay [2] (Homo sapiens) were 154 nM and 55000 nM, respectively.

For `Cc1cc(C(F)(F)F)cc(O)c1-c1ccc(NC[C@H]2CCCCN2)nn1` [Ex 20, (R)-3-Methyl-2-(6-((piperidin-2-ylmethyl)amino)pyridazin-3-yl)-5-(trifluoromethyl)phenol], the IC50 is 82.3 nM in assay [1] (setting [3]) and above 100000 nM in assay [2] (Homo sapiens).

Turning to `Cc1cc(C(F)(F)F)cc(O)c1-c1ccc(NC[C@@H]2C[C@H](F)CN2)nn1` [Ex 75, 2-(6-((((2S,4S)-4-Fluoropyrrolidin-2-yl)methyl)amino)pyridazin-3-yl)-3-methyl-5-(trifluoromethyl)phenol], the concentration for half-maximal inhibition (IC50) in assay [1] (setting [3]) is 18.3 nM; in assay [2] (Homo sapiens), above 100000 nM.

Consider `Cc1cc(C(F)(F)F)cc(O)c1-c1ccc(N[C@H]2CCCN3CCC[C@@H]23)nn1` [Ex 83b, 3-Methyl-2-(6-(((8S,8aS)-octahydroindolizin-8-yl)amino)pyridazin-3-yl)-5-(trifluoromethyl) phenol], for which the IC50 in assay [1] (setting [3]) was 69.4 nM; in assay [2] (Homo sapiens), above 100000 nM.

As to `Cc1cc(C(F)(F)F)cc(O)c1-c1ccc(NCC(C)(C)O)nn1` [Ex 15, 2-(6-((2-Hydroxy-2-methylpropyl)amino)pyridazin-3-yl)-3-methyl-5-(trifluoromethyl)phenol], the IC50 in assay [1] (setting [3]) was 85.9 nM; in assay [2] (Homo sapiens), above 100000 nM.

Turning to `Cc1cc(N[C@H]2C[C@@](C)(O)C2)nnc1-c1ccc(Cl)cc1O` [Ex 68, 5-Chloro-2-(6-(((cis)-3-hydroxy-3-methylcyclobutyl)amino)-4-methylpyridazin-3-yl)phenol], the IC50 in assay [1] (setting [3]) was 89.3 nM; in assay [2] (Homo sapiens), above 100000 nM.

For the compound `Oc1cc(C(F)(F)F)cc(Cl)c1-c1ccc(N[C@H]2C[C@@H](O)C2)nn1` [Ex 31, 3-Chloro-2-(6-((cis-3-hydroxycyclobutyl)amino)pyridazin-3-yl)-5-(trifluoromethyl)phenol], the IC50 in assay [1] (setting [3]) is 167 nM; in assay [2] (Homo sapiens) it was above 100000 nM.

For `Cc1cc(C(F)(F)F)cc(O)c1-c1ccc(NC[C@@H]2C[C@@H](F)CN2)nn1` [Ex 76, 2-(6-((((2S,4R)-4-Fluoropyrrolidin-2-yl)methyl)amino)pyridazin-3-yl)-3-methyl-5-(trifluoromethyl)phenol], the values for the IC50 in assay [1] (setting [3]) and in assay [2] (Homo sapiens) were 89.7 nM and above 100000 nM, respectively.

Turning to `Cc1ncccc1CNc1ccc(-c2c(O)cc(Cl)cc2C(F)(F)F)nn1` [Ex 35, 5-Chloro-2-(6-(((2-methylpyridin-3-yl)methyl)amino)pyridazin-3-yl)-3-(trifluoromethyl)phenol], the IC50 in assay [1] (setting [3]) was 243 nM; in assay [2] (Homo sapiens) it was above 100000 nM.

For the compound `Cc1cc(-c2c(C)cc(C(F)(F)F)cc2O)nnc1NCC(C)(C)O` [Ex 72, 2-(6-((2-Hydroxy-2-methylpropyl)amino)-5-methylpyridazin-3-yl)-3-methyl-5-(trifluoromethyl)phenol], the IC50 is 44.9 nM in assay [1] (setting [3]) and above 100000 nM in assay [2] (Homo sapiens).

As for `Cc1cc(C(F)(F)F)cc(O)c1-c1ccc(NC(C)(C)CO)nn1` [Ex 79, 2-(6-((1-Hydroxy-2-methylpropan-2-yl)amino)pyridazin-3-yl)-3-methyl-5-(trifluoromethyl)phenol], the half-inhibitory concentration (IC50) in assay [1] (setting [3]) was 370 nM; in assay [2] (Homo sapiens), above 100000 nM.

With `Cc1ncccc1CNc1ccc(-c2c(O)cc(C(F)(F)F)cc2Cl)nn1` [Ex 34, 3-Chloro-2-(6-(((2-methylpyridin-3-yl)methyl)amino)pyridazin-3-yl)-5-(trifluoromethyl)phenol], the IC50 in assay [1] (setting [3]) was 496 nM; in assay [2] (Homo sapiens), above 100000 nM.

As to `Cc1cc(C(F)(F)F)cc(O)c1-c1ccc(Nc2cncnc2)nn1` [Ex 43, 3-Methyl-2-(6-(pyrimidin-5-ylamino)pyridazin-3-yl)-5-(trifluoromethyl)phenol], the concentration for half-maximal inhibition (IC50) in assay [1] (setting [3]) is 281 nM; in assay [2] (Homo sapiens), 25000 nM.

In the case of `CCN1CCC[C@H]1CNc1ccc(-c2c(C)cc(C(F)(F)F)cc2O)nn1` [Ex 8, (S)-2-(6-(((1-Ethylpyrrolidin-2-yl)methyl)amino)pyridazin-3-yl)-3-methyl-5-(trifluoromethyl)phenol], the results for the concentration for half-maximal inhibition (IC50) in assay [1] (setting [3]) and in assay [2] (Homo sapiens) were 24.1 nM and above 100000 nM, respectively.

Take `Cc1cc(C(F)(F)F)cc(O)c1-c1ccc(N[C@@H]2CCC(=O)NC2)nn1` [Ex 61, (R)-5-((6-(2-Hydroxy-6-methyl-4-(trifluoromethyl)phenyl)pyridazin-3-yl)amino)piperidin-2-one]: the IC50 in assay [1] (setting [3]) is 65.8 nM; in assay [2] (Homo sapiens), above 100000 nM.

`Cc1cc(C(F)(F)F)cc(O)c1-c1ccc(N[C@@H]2CC[C@@H]3CC[C@H]2N3C)nn1` [Ex 85b, 3-Methyl-2-(6-(((1R,2R,5R)-8-methyl-8-azabicyclo[3.2.1]octan-2-yl)amino)pyridazin-3-yl)-5-(trifluoromethyl)phenol]: the half-inhibitory concentration (IC50) in assay [1] (read-out: IL-1β IC50, 15 μM nigericin, 3 hours) is 1.3 nM; in assay [2], above 100000 nM.
